Results published in patent US20250179077A1, “QUINAZOLINE COMPOUNDS AND USES THEREOF AS INHIBITORS OF MUTANT KRAS PROTEINS” (AMGEN INC., priority 2022, published 2025).
Where two headings read alike, the source gives them in different places.

Columns and labels:
[1] = system: Phosphorylation of ERK1/2 in AsPC-1 cells; assay: Phospho-ERK1/2 MSD Assay; assay type: cell-based
Outline: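 Phospho-ERK1/2 was quantified by MSD whole-cell lysate immunoassay in RIPA lysates made with protease/phosphatase inhibitors. A 4-parameter logistic model gave IC50.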

[2] = biological target: GDP-bound KRAS protein (aa 1-169), containing both G12D and C118A amino acid substitutions (Homo sapiens, UniProt P01116, C118A/G12D); assay: KRAS G12D Coupled Nucleotide Exchange Assay; assay type: biochemical
Method: KRAS G12D Coupled Nucleotide Exchange Assay
Following compound pre-incubation, purified SOS protein (aa 564-1049) and GTP (Roche 10106399001) were added to the assay wells and incubated for an additional 30 min. […] The assay plates were then read on a PerkinElmer EnVision Multilabel Reader, using AlphaScreen® technology, and data were analyzed using a 4-parameter logistic model to calculate IC50 values.

[3] = biological target: His-tagged KRAS G12D protein (Homo sapiens, UniProt P01116, G12D); assay: KRAS G12D TR-FRET Assay; assay type: binding
Outline: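 His-KRAS G12D (20 nM) was preincubated with titrated compound for 30 min at RT in HEPES pH 7.4 buffer with MgCl2, 10 μM GDP. Biotin-KRPep-2d (20 nM) was then added for 1 h, followed by Eu-anti-His/streptavidin-d2 for 1 h. The 665/615 nm TR-FRET ratio was fitted 4-parameter to give IC50.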

[4] = Homo sapiens, ASPC1, 2 h, read-out: 2 h p-ERK (AsPC-1 cells), IC50, AsPC-1 cells, 2 h compound treatment

GDP-bound KRAS protein (aa 1-169), containing both G12D and C118A amino acid substitutions, sequence (P01116 1-169 isoform P01116-2 G12D/C118A): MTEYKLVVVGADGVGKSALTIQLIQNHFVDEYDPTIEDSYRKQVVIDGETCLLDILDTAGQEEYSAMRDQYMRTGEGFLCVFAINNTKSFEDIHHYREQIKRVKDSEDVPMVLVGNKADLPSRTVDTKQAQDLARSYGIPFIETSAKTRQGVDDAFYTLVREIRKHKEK
His-tagged KRAS G12D protein, sequence (P01116 1-188 isoform P01116-2 G12D): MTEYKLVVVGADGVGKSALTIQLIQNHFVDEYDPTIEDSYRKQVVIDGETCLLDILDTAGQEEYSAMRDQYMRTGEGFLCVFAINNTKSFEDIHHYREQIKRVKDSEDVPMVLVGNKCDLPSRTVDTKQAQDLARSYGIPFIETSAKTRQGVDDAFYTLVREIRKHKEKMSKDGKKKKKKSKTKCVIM

Structure (SMILES) | IC50 [1, 4] [nM] | IC50 [2] [nM] | IC50 [3] [nM] | IC50 ([1]; read-out: 2 h p-ERK (AsPC-1 cells), IC50, AsPC-1 cells, 2 h compound treatment) [nM]
O=C1NC[C@]2(CCCN(c3nc(OC[C@@]45CCCN4C[C@H](F)C5)nc4c(F)c(-c5cc(O)cc(Cl)c5C5CC5)ccc34)C2)O1 [Example 84, (S)-7-(7-(3-Chloro-2-cyclopropyl-5-hydroxyphenyl)-8-fluoro-2-(((2R,7aS)-2-fluorotetrahydro-1H-pyrrolizin-7a(5H)-yl)methoxy)quinazolin-4-yl)-1-oxa-3,7-diazaspiro[4.5]decan-2-one] | 72 | 2 | 5 | –
CCc1c(F)ccc2cc(O)cc(-c3c(F)cc4c(N5CCC[C@]6(C5)C[C@@H](O)C6)nc(OC[C@@]56CCCN5C[C@H](F)C6)nc4c3F)c12 (single isomer, unassigned) [Example 91] | 16 | 3 | 5 | –
Oc1cc(-c2c(F)cc3c(N4CCCOCC4)nc(OC[C@@]45CCCN4C[C@H](F)C5)nc3c2F)c2ccccc2c1 [Example 10, 4-(6,8-Difluoro-2-(((2R,7aS)-2-fluorotetrahydro-1H-pyrrolizin-7a(5H)-yl)methoxy)-4-(1,4-oxazepan-4-yl)quinazolin-7-yl)naphthalen-2-ol] | 1040 | 15 | 14 | –
CCc1c(F)ccc2cc(O)cc(-c3ccc4c(N5CCCC6(CNC(=O)O6)C5)nc(OC[C@@]56CCCN5C[C@H](F)C6)nc4c3F)c12 (stereo partly drawn) [Example 54, 7-(7-(8-Ethyl-7-fluoro-3-hydroxynaphthalen-1-yl)-8-fluoro-2-(((2R,7aS)-2-fluorotetrahydro-1H-pyrrolizin-7a(5H)-yl)methoxy)quinazolin-4-yl)-1-oxa-3,7-diazaspiro[4.5]decan-2-one] | 23 | 4 | 3 | –
CCc1c(F)ccc2cc(O)cc(-c3c(F)cc4c(N5CCC(O)C5)nc(OC[C@@]56CCCN5C[C@H](F)C6)nc4c3F)c12 (stereo partly drawn) [Example 19, 1-(7-(8-Ethyl-7-fluoro-3-hydroxynaphthalen-1-yl)-6,8-difluoro-2-(((2R,7a.S)-2-fluorotetrahydro-1H-pyrrolizin-7a(5H)-yl)methoxy)quinazolin-4-yl)pyrrolidin-3-ol] | 7740 | 37 | 111 | –
C/C=C\c1c(C)cc2[nH]ncc2c1-c1c(F)cc2c(N3CCC[C@]4(CCO4)C3)nc(OC[C@@]34CCCN3C[C@H](F)C4)nc2c1F (single isomer, unassigned) [Example 114] | 87 | 5 | 6 | –
CCC1CCCc2cc(O)cc(-c3ccc4c(N5CCC[C@@](C)(O)C5)nc(OC[C@@]56CCCN5C[C@H](F)C6)nc4c3F)c21 (stereo partly drawn) [Example 95, (3R)-1-(7-(8-Ethyl-3-hydroxy-5,6,7,8-tetrahydronaphthalen-1-yl)-8-fluoro-2-(((2R,7aS)-2-fluorotetrahydro-1H-pyrrolizin-7a(5H)-yl)methoxy)quinazolin-4-yl)-3-methylpiperidin-3-ol] | 180 | 9 | 12 | –
CCc1c(F)ccc2cc(O)cc(-c3ccc4c(N5CCOCC(C)(O)C5)nc(OC[C@@]56CCCN5C[C@H](F)C6)nc4c3F)c12 (single isomer, unassigned) [Example 29] | 15 | 1 | 1 | –
C/C=C\c1c(Cl)cc2[nH]ncc2c1-c1ccc2c(N3CCCC4(CNC(=O)O4)C3)nc(OC[C@@]34CCCN3C[C@H](F)C4)nc2c1F (stereo partly drawn) [Example 117, 7-(7-(6-Chloro-5-((Z)-prop-1-en-1-yl)-1H-indazol-4-yl)-8-fluoro-2-(((2R,7aS)-2-fluorotetrahydro-1H-pyrrolizin-7a(5H)-yl)methoxy)quinazolin-4-yl)-1-oxa-3,7-diazaspiro[4.5]decan-2-one] | 74 | 2 | 3 | –
Oc1cc(-c2ccc3c(N4CCCOCC4)nc(OC[C@]45CCCN4C[C@H](F)C5)nc3c2F)c2ccccc2c1 [Example 41, 4-(8-Fluoro-2-(((2R,7aR)-2-fluorotetrahydro-1H-pyrrolizin-7a(5H)-yl)methoxy)-4-(1,4-oxazepan-4-yl)quinazolin-7-yl)naphthalen-2-ol] | 1470 | 23 | 23 | –
C/C=C\c1c(Cl)cc2[nH]ncc2c1-c1ccc2c(N3CCC[C@@](C)(O)C3)nc(OCC3(CN(C)C)CC3)nc2c1F [Example 115, (3R)-1-(7-(6-Chloro-5-((Z)-prop-1-en-1-yl)-1H-indazol-4-yl)-2-((1-((dimethylamino)methyl)cyclopropyl)methoxy)-8-fluoroquinazolin-4-yl)-3-methylpiperidin-3-ol] | 247 | 9 | 8 | –
CCc1c(F)ccc2cc(O)cc(-c3c(O)cc4c(N5CCCOCC5)nc(OC[C@@]56CCCN5C[C@H](F)C6)nc4c3F)c12 [Example 26, 7-(8-Ethyl-7-fluoro-3-hydroxynaphthalen-1-yl)-8-fluoro-2-(((2R,7aS)-2-fluorotetrahydro-1H-pyrrolizin-7a(5H)-yl)methoxy)-4-(1,4-oxazepan-4-yl)quinazolin-6-ol] | 270 | 4 | 4 | –

Second part, the compound after the results:

IC50 [1, 4] [nM] | IC50 [2] [nM] | IC50 [3] [nM] | IC50 ([1]; read-out: 2 h p-ERK (AsPC-1 cells), IC50, AsPC-1 cells, 2 h compound treatment) [nM] | Structure (SMILES)
87 | 4 | 7 | – | C/C=C\c1c(C)cc2[nH]ncc2c1-c1ccc2c(N3CCOC[C@@](C)(O)C3)nc(OC[C@@]34CCCN3C[C@H](F)C4)nc2c1F [Example 106, (6S)-4-(8-Fluoro-2-(((2R,7aS)-2-fluorotetrahydro-1H-pyrrolizin-7a(5H)-yl)methoxy)-7-(6-methyl-5-((Z)-prop-1-en-1-yl)-1H-indazol-4-yl)quinazolin-4-yl)-6-methyl-1,4-oxazepan-6-ol]
16 | 3 | 5 | – | Oc1cc(-c2c(F)cc3c(N4CCC[C@]5(CCO5)C4)nc(OC[C@@]45CCCN4C[C@H](F)C5)nc3c2F)c2c(Cl)c(F)ccc2c1 [Example 78, 5-Chloro-4-(6,8-difluoro-2-(((2R,7aS)-2-fluorotetrahydro-1H-pyrrolizin-7a(5H)-yl)methoxy)-4-((S)-1-oxa-6-azaspiro[3.5]nonan-6-yl)quinazolin-7-yl)-6-fluoronaphthalen-2-ol]
30 | 1 | 2 | – | C/C=C\c1c(C)cc2[nH]ncc2c1-c1c(F)cc2c(N3CCOC[C@@](C)(O)C3)nc(OC[C@@]34CCCN3C[C@H](F)C4)nc2c1F (single isomer, unassigned) [Example 104]
85 | 7 | 7 | – | CCc1c(F)ccc2cccc(-c3ccc4c(N5CCCC6(CNC(=O)O6)C5)nc(OC[C@@]56CCCN5C[C@H](F)C6)nc4c3F)c12 (stereo partly drawn) [Example 85, 7-(7-(8-Ethyl-7-fluoronaphthalen-1-yl)-8-fluoro-2-(((2R,7aS)-2-fluorotetrahydro-1H-pyrrolizin-7a(5H)-yl)methoxy)quinazolin-4-yl)-1-oxa-3,7-diazaspiro[4.5]decan-2-one]
– | 1254 | 968 | 205 | C#Cc1c(F)ccc2cc(O)cc(-c3c(F)cc4c(N5CCC[C@@](C)(O)C5)nc(OC[C@@]56CCCN5C[C@H](F)C6)nc4c3F)c12 (single isomer, unassigned) [Example 13]
58 | 5 | 10 | – | O=C1NCC2(CCCN(c3nc(OC[C@@]45CCCN4C[C@H](F)C5)nc4c(F)c(-c5cc(O)cc(Cl)c5C5CC5)ccc34)C2)O1 (stereo partly drawn) [Example 83, 7-(7-(3-Chloro-2-cyclopropyl-5-hydroxyphenyl)-8-fluoro-2-(((2R,7a5)-2-fluorotetrahydro-1H-pyrrolizin-7a(5H)-yl)methoxy)quinazolin-4-yl)-1-oxa-3,7-diazaspiro[4.5]decan-2-one]
123 | 4 | 5 | – | C[C@@]1(O)CCCN(c2nc(OC[C@@]34CCCN3C[C@H](F)C4)nc3c(F)c(-c4cc(O)cc(Cl)c4C4CC4)c(F)cc23)C1 [Example 6, (3R)-1-(7-(3-Chloro-2-cyclopropyl-5-hydroxyphenyl)-6,8-difluoro-2-(((2R,7aS)-2-fluorotetrahydro-1H-pyrrolizin-7a(5H)-yl)methoxy)quinazolin-4-yl)-3-methylpiperidin-3-ol]
14 | 5 | 7 | – | CCc1c(F)ccc2cc(O)cc(-c3ccc4c(N5CCC[C@@]6(CNC(=O)O6)C5)nc(OC[C@@]56CCCN5C[C@H](F)C6)nc4c3F)c12 (single isomer, unassigned) [Example 89]
48 | 3 | 2 | – | CCc1c(F)ccc2cc(O)cc(-c3ccc4c(N5CCC[C@@](C)(O)C5)nc(OC[C@@]56CCCN5C[C@H](F)C6)nc4c3F)c12 [Example 1, (R)-1-(7-(8-Ethyl-7-fluoro-3-hydroxynaphthalen-1-yl)-8-fluoro-2-(((2R,7aS)-2-fluorotetrahydro-1H-pyrrolizin-7a(5H)-yl)methoxy)quinazolin-4-yl)-3-methylpiperidin-3-ol]
